Values of other authors as cited in patent US10421941B2, “Process for improving the solubility of cell culture media” (Merck Patent GmbH, priority 2014, dated 2019).

Details: water / aqueous solvents

Row | solubility (in words) | SMILES
1 | moderate | CC(C)[C@H](N)C(=O)O [valine]
2 | moderate | CC[C@H](C)[C@H](N)C(=O)O [isoleucine]
3 | moderate | CC(C)C[C@H](N)C(=O)O [leucine]
4 | poorly soluble | N[C@@H](CSSC[C@H](N)C(=O)O)C(=O)O [cystine]
